# Measured values taken from patent publication US11590129B2, “Combination therapy with an antitumor alkaloid” (PHARMA MAR, S.A., priority 2010, dated 2023).
# What was measured:
# [1] = tested on: A549 human lung carcinoma cell line; assay: MTT cytotoxicity assay in A549 cells: IC50 of single agents and combinations with PM01183; type: cell-based; details: Homo sapiens, A549, 72 h
# Procedure, shortened: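 A549 cells seeded at 5,000 per well, grown 24 h drug-free, then exposed to vehicle or compounds for 72 h, either singly or combined with PM01183. Combination responses plotted against dose ratio relative to an additivity line.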
# [2] = tested on: A673 human rhabdomyosarcoma cell line; assay: cells; details: Homo sapiens, A673, 72 h
# Procedure, shortened: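 A673 cells seeded at 5,000 per well, grown 24 h drug-free, then exposed to compounds for 72 h. Viability by MTT reduction (8 h, 37 °C), formazan dissolved in DMSO. Results expressed as percentage of control cell growth.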
# [3] = tested on: SK-MEL-2 human melanoma cell line; assay: cells; details: Homo sapiens, SK-MEL-2, 72 h
# Procedure, shortened: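 SK-MEL-2 melanoma cells (5,000/well) grown 24 h drug-free, then exposed 72 h to vehicle or test compounds. Viability by MTT reduction (8 h, 37 °C), formazan dissolved in DMSO; results expressed as percentage of control cell growth.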
# [4] = tested on: PC-3 human prostate cancer cell line; assay: cells; details: Homo sapiens, PC-3, 72 h
# Procedure, shortened: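 Cells seeded at 5,000/well, grown 24 h drug-free, then exposed to vehicle or test compounds for 72 h. Viability by MTT reduction (8 h, 37 °C), formazan dissolved in DMSO. Values given as percentage of control cell growth.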
# [5] = tested on: PANC-1 human pancreatic carcinoma cell line; assay: cells; details: Homo sapiens, PANC-1, 72 h
# Procedure, shortened: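 Cells seeded at 5,000/well, left 24 h drug-free, then exposed to test compounds for 72 h. Viability read by MTT reduction (MTT added for 8 h at 37° C, formazan dissolved in DMSO).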
# [6] = tested on: HGC-27 human gastric carcinoma cell line; assay: cells; details: Homo sapiens, HGC-27, 72 h
# [7] = tested on: IGROV-1 human ovarian adenocarcinoma cell line; assay: cells; details: Homo sapiens, IGROV-1, 72 h
# [8] = tested on: HepG2 human hepatocellular liver carcinoma cell line; assay: MTT cytotoxicity assay in HepG2 cells: IC50 of single agents and combinations with PM01183; type: cell-based; details: Homo sapiens, HepG2, 72 h
# [9] = tested on: MDA-MB-231 human breast adenocarcinoma cell line; assay: cells; details: Homo sapiens, MDA-MB-231, 72 h
# [10] = tested on: RXF-393 human kidney carcinoma cell line; assay: cells; details: Homo sapiens, RXF 393, 72 h
# [11] = tested on: U87-MG human glioblastoma cell line; assay: cells; details: Homo sapiens, U-87 MG, 72 h
# [12] = tested on: JURKAT human leukemia cell line; assay: cells; details: Homo sapiens, Jurkat, 72 h
# Method: (§1) Additional serial dilutions were prepared in serum-free culture medium to achieve a final 4× concentration. Aliquots of 50 μL of each diluted compound were added per well.
# (§2) JURKAT and MOLT-4 were the human leukemia cell lines selected for this assay, which were obtained from the American Type Culture Collection (ATCC).
# (§3) Briefly, cells were seeded in 96 well microtiter plates at a density of 50000 cells per well in 150 μL of culture medium and incubated for 4-6 hours in drug-free medium before treatment with vehicle alone or test compounds for 72 hours.
# (§4) After incubation, the cytotoxic effect was evaluated using a MTT reduction assay. 50 μL of MTT solution (1 mg/mL) were added to the wells and incubated for 15-17 hours at 37° C. until formazan crystals were formed. After gently removing the culture medium, DMSO was added to dissolve the insoluble purple formazan product into a colored solution. […] Results were expressed as percentage of control cell growth. The EC50 values (half-maximal effective concentration) used for the combination studies were calculated using Prism v5.02 software (GraphPad). EC50 was expressed as molar concentration and represented the mean of at least three independent assays.
# (§5) b. In a second set of experiments, concentration-response curves for the agents tested, both alone and in two-drug combination, were performed, using the same methodology described in the previous paragraph.
# (§6) Using these starting concentrations, constant serial dilutions were performed to generate the concentration-response curves for each set of drugs, alone and in combination.
# (§7) Based on this equation, the term “combination index” (CI) is used as a quantitative measure of the degree of drug interactions. […] CI values were calculated by solving the equation for different values of fa (i.e., for different degrees of cell groth inhibition).
# (§8) Data were analyzed using CalcuSyn software (Biosoft, Cambridge, UK). For statistical analysis and graphs Prism software (GraphPad, San Diego, USA) was used. All the results represent the mean of at least three independent experiments.
# [13] = tested on: MOLT-4 human leukemia cell line; assay: cells; details: Homo sapiens, MOLT-4, 72 h
# Method: as §1, §2, §3, §4, §5, §6, §7, §8
# [14] = tested on: RAMOS human lymphoma cell line; assay: cells; details: Homo sapiens, Ramos, 72 h
# Method: as §3, §4, §6, §7, §8, §1
# (§9) In the second set of assays, concentration-response curves for the agents tested, both alone and in two-drug combination, were performed.
# [15] = tested on: U-937 human lymphoma cell line; assay: cells; details: Homo sapiens, U-937, 72 h
# Method: as §3, §4, §6, §7, §8, §1, §9
smiles,measurement,setting,value
"COc1cc2c(cc1O)CCN[C@]21CS[C@@H]2c3c(OC(C)=O)c(C)c4c(c3[C@H](COC1=O)N1[C@@H]2[C@H]2c3c(cc(C)c(OC)c3O)C[C@@H]([C@@H]1O)N2C)OCO4 [ET-743, trabectedin]",IC50,[1],22.5 nM
same,IC50,[2],1.9 nM
same,IC50,[3],2 nM
same,IC50,[4],8 nM
same,IC50,[5],21 nM
same,IC50,[6],5.8 nM
same,IC50,[7],6.45 nM
same,IC50,[8],7.21 nM
same,IC50,[9],2 nM
same,IC50,[10],9.6 nM
same,IC50,[11],5 nM
same,EC50,[12],6.96 nM
same,EC50,[13],3.84 nM
same,EC50,[14],9.55 nM
same,EC50,[15],8.62 nM
